Reference: ChEMBL document CHEMBL1124317, “Rationale for the synthesis and preliminary biological evaluation of highly active new antitumor nitrosoureido sugars” (J Med Chem, 1989)

Tests used:
Mus musculus [1] = assay: The number of L1210 leukemia mice survived after 30 days with compound injected by a dose of 2.5 mg/kg intraperitoneally; 8/8; format: functional; conditions: route intraperitoneal
Mus musculus [2] = species on record: Mus musculus; assay: (§1) Lethal dose was evaluated in male mouse; format: toxicity, organism-based; conditions: in vivo
[3] = as §1; format: toxicity, organism-based; conditions: in vivo
Mus musculus [4] = assay: The number of B16 Melanocarcinoma mice survived after 60 days with compound injected by a dose of 5 mg/kg intraperitoneally; 1/10; format: functional; conditions: route intraperitoneal
Mus musculus [5] = assay: The number of L1210 leukemia mice survived after 30 days with compound in aqueous solution injected by a dose of 20 mg/kg intraperitoneally; 6/10; format: functional; conditions: route intraperitoneal
[6] = Mortality range of the mice with L1210 leukemia treated with 20 mg/kg of dose intraperitoneally with no of mice survived/no of mice treated; 0/10; format: functional; conditions: route intraperitoneal
[7] = Mortality range of the mice with B16 Melanocarcinoma treated with 30 mg/kg of dose intraperitoneally with no of mice survived/no of mice treated; 0/10; format: functional; conditions: route intraperitoneal
Mus musculus [8] = assay: The number of B16 Melanocarcinoma mice survived after 30 days with compound injected by a dose of 10 mg/kg intraperitoneally; 10/10; format: functional; conditions: route intraperitoneal
Mus musculus [9] = assay: Anti tumor activity l when treated to mice with L1210 leukemia with 1.25 mg/kg dose of compound intraperitoneally was expressed as percent of treated to control (T/C %); format: functional; conditions: route intraperitoneal
[10] = Mortality range of the mice with L1210 leukemia treated with 5 mg/kg of dose intraperitoneally with no of mice survived/no of mice treated; 0/8; format: functional; conditions: route intraperitoneal
Mus musculus [11] = assay: The number of B16 Melanocarcinoma mice survived after 60 days with compound injected by a dose of 20 mg/kg intraperitoneally; 9/10; format: functional; conditions: route intraperitoneal
[12] = Mortality range of the mice with B16 Melanocarcinoma treated with 20 mg/kg of dose intraperitoneally with no of mice survived/no of mice treated; 0/10; format: functional; conditions: route intraperitoneal
[13] = Ratio of mice died to that of mice treated with 20 mg/kg of compound in olive oil intraperitoneally with L1210 leukemia tumor; 0/15; format: functional; conditions: route intraperitoneal
[14] = Mortality range of the mice with L1210 leukemia treated with 30 mg/kg of dose intraperitoneally with no of mice survived/no of mice treated; 1/10; format: functional; conditions: route intraperitoneal
Mus musculus [15] = assay: Anti tumor activity in olive oil when treated to mice with L1210 leukemia with 20 mg/kg dose of compound intraperitoneally was expressed as percent of treated to control (T/C %); format: functional; conditions: route intraperitoneal
Mus musculus [16] = assay: Median survival time of the non surviving mice; treated with 0.625 mg/kg of compound to mice with L1210 leukemia; 10-12; format: functional
Mus musculus [17] = assay: The number of B16 Melanocarcinoma mice survived after 60 days with compound injected by a dose of 30 mg/kg intraperitoneally; 9/10; format: functional; conditions: route intraperitoneal
Mus musculus [18] = assay: The number of L1210 Leukemia mice survived after 30 days with compound in olive oil injected by a dose of 20 mg/kg intraperitoneally; 15/15; format: functional; conditions: route intraperitoneal
Mus musculus [19] = assay: Anti tumor activity l when treated to mice with B16 Melanocarcinoma with 10 mg/kg dose of compound intraperitoneally was expressed as percent of treated to control (T/C %); format: functional; conditions: route intraperitoneal
Mus musculus [20] = assay: Anti tumor activity in olive oil when treated to mice with B16 melanocarcinoma with 20 mg/kg dose of compound intraperitoneally was expressed as percent of treated to control (T/C %); format: functional; conditions: route intraperitoneal
[21] = Mortality range of the mice with L1210 leukemia treated with 2.5 mg/kg of dose intraperitoneally with no of mice survived/no of mice treated; 0/8; format: functional; conditions: route intraperitoneal
Mus musculus [22] = assay: The number of L1210 leukemia mice survived after 60 days with compound injected by a dose of 10 mg/kg intra peritoneally; 8/8; format: functional
[23] = Mortality range of the mice with L1210 leukemia treated with 5 mg/kg of dose intraperitoneally with no of mice survived/no of mice treated; 0/10; format: functional; conditions: route intraperitoneal
Mus musculus [24] = assay: Median survival time of the non surviving mice; treated with 1.25 mg/kg of compound to mice with L1210 leukemia; 16-19; format: functional
Mus musculus [25] = assay: Median survival time of the non surviving mice; treated with 10 mg/kg of compound to mice with B16 Melanocarcinoma; 34-47; format: functional
Mus musculus [26] = assay: Anti tumor activity l when treated to mice with L1210 leukemia with 0.625 mg/kg dose of compound intraperitoneally was expressed as percent of treated to control (T/C %); format: functional; conditions: route intraperitoneal
Mus musculus [27] = assay: The number of L1210 leukemia mice survived after 60 days with compound injected by a dose of 10 mg/kg intraperitoneally; 9/10; format: functional; conditions: route intraperitoneal
Mus musculus [28] = species on record: Mus musculus; assay: (§2) Lethal dose was evaluated in female mouse; format: toxicity, organism-based; conditions: in vivo
[29] = as §2; format: toxicity, organism-based; conditions: in vivo
Mus musculus [30] = assay: The number of L1210 leukemia mice survived after 60 days with compound injected by a dose of 2.5 mg/kg intraperitoneally; 0/8; format: functional; conditions: route intraperitoneal
Mus musculus [31] = assay: The number of L1210 leukemia mice survived after 60 days with compound in aqueous solution injected by a dose of 20 mg/kg intraperitoneally; 6/10; format: functional; conditions: route intraperitoneal
Mus musculus [32] = assay: The number of B16 melanocarcinoma mice survived after 60 days with compound in olive oil injected by a dose of 20 mg/kg intraperitoneally; 3/20; format: functional; conditions: route intraperitoneal
Mus musculus [33] = assay: The number of L1210 leukemia mice survived after 30 days with compound injected by a dose of 1.25 mg/kg intraperitoneally; 0/8; format: functional; conditions: route intraperitoneal
Mus musculus [34] = assay: The number of B16 Melanocarcinoma mice survived after 30 days with compound injected by a dose of 30 mg/kg intraperitoneally; 10/10; format: functional; conditions: route intraperitoneal
Mus musculus [35] = assay: The number of Lewis lung mice survived after 60 days with compound in olive oil injected by a dose of 20 mg/kg intraperitoneally; 18/20; format: functional; conditions: route intraperitoneal
[36] = Ratio of mice died to that of mice treated with 5 mg/kg of compound in aqueous solution intraperitoneally with L1210 leukemia; 0/10; format: functional; conditions: route intraperitoneal
Mus musculus [37] = assay: Median survival time of the non surviving mice; treated with 5 mg/kg of compound to mice with B16 Melanocarcinoma; 30-47; format: functional
Mus musculus [38] = assay: Anti tumor activity l when treated to mice with L1210 leukemia with 5 mg/kg dose of compound intraperitoneally was expressed as percent of treated to control (T/C %); format: functional; conditions: route intraperitoneal
[39] = Ratio of mice died to that of mice treated with 20 mg/kg of compound in olive oil intraperitoneally with Lewis lung; 0/20; format: functional; conditions: route intraperitoneal
[40] = Mortality range of the mice with L1210 leukemia treated with 0.625 mg/kg of dose intraperitoneally with no of mice survived/no of mice treated; 0/8; format: functional; conditions: route intraperitoneal
Mus musculus [41] = assay: The number of L1210 leukemia mice survived after 30 days with compound injected by a dose of 30 mg/kg intraperitoneally; 9/10; format: functional; conditions: route intraperitoneal
Mus musculus [42] = assay: The number of L1210 leukemia mice survived after 60 days with compound injected by a dose of 5 mg/kg intraperitoneally; 8/8; format: functional; conditions: route intraperitoneal
Mus musculus [43] = assay: The number of B16 Melanocarcinoma mice survived after 30 days with compound injected by a dose of 5 mg/kg intraperitoneally; 9/10; format: functional; conditions: route intraperitoneal
[44] = Ratio of mice died to that of mice treated with 20 mg/kg of compound in olive oil intraperitoneally with B16 Melanocarcinoma; 0/20; format: functional; conditions: route intraperitoneal

Structure (SMILES): CO[C@@H]1C[C@@H](NC(=O)N(CCCl)N=O)[C@H](O)[C@@H](CO)O1 [ECOMUSTINE]
- Survivals (Mus musculus [1]): 8
- LD10 (Mus musculus [2]): 31.2 mg/kg
- LD90 (Mus musculus [2]): 60 mg/kg
- LD50 [3]: 43.3 mg/kg
- Survivals (Mus musculus [4]): 1
- Survival after 30 days (Mus musculus [5]): 6
- Ratio [6]: 0
- Ratio [7]: 0
- Survivals (Mus musculus [8]): 10
- T/C (Mus musculus [9]): 188%
- Ratio [10]: 0
- Survivals (Mus musculus [11]): 9
- Ratio [12]: 0
- Ratio [13]: 0
- Ratio [14]: 1
- T/C (Mus musculus [15]): 644%
- Median survival time (Mus musculus [16]): 11.25
- Survivals (Mus musculus [17]): 9
- Survivals (Mus musculus [18]): 15
- T/C (Mus musculus [19]): 233%
- T/C (Mus musculus [20]): 239%
- Ratio [21]: 0
- Survivals (Mus musculus [22]): 8
- Ratio [23]: 0
- Median survival time (Mus musculus [24]): 16.9
- Median survival time (Mus musculus [25]): 44
- T/C (Mus musculus [26]): 125%
- Survivals (Mus musculus [27]): 9
- LD10 (Mus musculus [28]): 29.4 mg/kg
- LD90 (Mus musculus [28]): 56.4 mg/kg
- LD50 [29]: 40.7 mg/kg
- Survivals (Mus musculus [30]): 0
- Survivals (Mus musculus [31]): 6
- Survivals (Mus musculus [32]): 3
- Survival after 30 days (Mus musculus [33]): 0
- Survivals (Mus musculus [34]): 10
- Survivals (Mus musculus [35]): 18
- Ratio [36]: 0
- Median survival time (Mus musculus [37]): 40
- T/C (Mus musculus [38]): 164%
- Ratio [39]: 0
- Ratio [40]: 0
- Survivals (Mus musculus [41]): 9
- Survivals (Mus musculus [42]): 8
- Survivals (Mus musculus [43]): 9
- Ratio [44]: 0
